Patent US12263171B2, “7-, 8-, and 10-substituted amino triazolo quinazoline derivatives as adenosine receptor antagonists, pharmaceutical compositions and their use” (Merck Sharp & Dohme LLC, priority 2018, dated 2025)

Tests used:
[1] = target: human A2a adenosine receptor (Homo sapiens (Human), UniProt P29274); assay: A2a receptor affinity radioligand binding assay ([3H] SCH58261, membranes from HEK293 or CHO cells); conditions: unstarred values: radioligand binding
How it was run: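 Displacement of tritiated SCH58261 (working dilution 4 nM) from recombinant human A2a receptor membranes (HEK293 or CHO), 60 min at room temperature in Tris pH 7.4/MgCl2 buffer after 15–30 min compound preincubation. Scintillation counting after filtration; normalized percent effect fitted 4-parameter logistic for IC50.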

[2] = target: human A2b adenosine receptor (Homo sapiens (Human), UniProt P29275); assay: A2B antagonism in cAMP cell-based assay (LANCE cAMP, HEK293 cells, 600 nM adenosine); conditions: for IC50: values marked *: cAMP cell-based assay; for *A2B cAMP % inh. @ 10000 nM: marked *
Chain of human A2b adenosine receptor (P29275 whole entry): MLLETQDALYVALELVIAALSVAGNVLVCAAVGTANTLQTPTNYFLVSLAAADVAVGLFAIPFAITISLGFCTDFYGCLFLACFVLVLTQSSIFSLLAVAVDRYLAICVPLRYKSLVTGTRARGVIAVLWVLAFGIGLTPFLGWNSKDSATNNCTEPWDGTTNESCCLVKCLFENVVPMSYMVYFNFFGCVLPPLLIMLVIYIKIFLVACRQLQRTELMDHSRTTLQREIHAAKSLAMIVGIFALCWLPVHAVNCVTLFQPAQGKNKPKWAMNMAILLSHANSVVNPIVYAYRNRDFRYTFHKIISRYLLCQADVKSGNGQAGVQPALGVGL

Chain of human A2a adenosine receptor (P29274 whole entry): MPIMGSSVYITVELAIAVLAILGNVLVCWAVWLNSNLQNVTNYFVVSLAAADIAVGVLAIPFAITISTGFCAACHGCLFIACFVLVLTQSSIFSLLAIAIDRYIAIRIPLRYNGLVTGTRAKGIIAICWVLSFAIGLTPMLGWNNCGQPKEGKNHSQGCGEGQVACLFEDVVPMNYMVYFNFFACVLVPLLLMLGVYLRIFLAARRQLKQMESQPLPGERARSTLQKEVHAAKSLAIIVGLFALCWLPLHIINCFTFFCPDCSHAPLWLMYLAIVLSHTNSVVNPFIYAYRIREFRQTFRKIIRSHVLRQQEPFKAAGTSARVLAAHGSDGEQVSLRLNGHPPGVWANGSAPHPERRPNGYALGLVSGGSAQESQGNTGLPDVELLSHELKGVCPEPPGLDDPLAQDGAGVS

| IC50 [1] | IC50 [2] | *A2B cAMP % inh. @ 10000 nM [2] | SMILES |
| --- | --- | --- | --- |
| 0.0031 µM | 0.321 µM |  | COc1cccc2c1nc(N)n1nc([C@@H]3CCCN(c4cnn(CC(C)(C)N)c4)C3)nc21 [Example 120, (R)-2-(1-(1-(2-amino-2-methylpropyl)-1H-pyrazol-4-yl)piperidin-3-yl)-7-methoxy-[1,2,4]triazolo[1,5-c]quinazolin-5-amine] |
| 0.0008 µM | 0.0131 µM |  | COc1cccc2c1nc(N)n1nc([C@@H]3CCCN(c4cnn(CS(C)(=O)=O)c4)C3)nc21 [Example 123, (R)-7-methoxy-2-(1-(1-((methylsulfonyl)methyl)-1H-pyrazol-4-yl)piperidin-3-yl)-[1,2,4]triazolo[1,5-c]quinazolin-5-amine] |
| 0.0077 µM | 1.28 µM |  | Nc1nc2c(OC(F)F)cccc2c2nc([C@@H]3CCCN(c4cnn(C5CC5)c4)C3)nn12 [Example 125, (R)-2-(1-(1-cyclopropyl-1H-pyrazol-4-yl)piperidin-3-yl)-7-(difluoromethoxy)-[1,2,4]triazolo[1,5-c]quinazolin-5-amine] |
| 0.0132 µM | 2.51 µM |  | Cn1cc(N2CCC[C@@H](c3nc4c5cccc(OC(F)F)c5nc(N)n4n3)C2)cn1 [Example 126, (R)-7-(difluoromethoxy)-2-(1-(1-methyl-1H-pyrazol-4-yl)piperidin-3-yl)-[1,2,4]triazolo[1,5-c]quinazolin-5-amine] |
| 0.0568 µM | 1.65 µM |  | COc1cccc2c1nc(N)n1nc(C34CC(C3)N(c3cnn(C)c3)C4)nc21 [Example 127, 7-methoxy-2-(2-(1-methyl-1H-pyrazol-4-yl)-2-azabicyclo[2.1.1]hexan-4-yl)-[1,2,4]triazolo[1,5-e]quinazolin-5-amine] |
| 5.28 µM |  | 30% inh. @ 10000 nM* | COc1cccc2c1nc(N)n1nc(C3CCCN(c4cnn(C5CC5)c4)C3C)nc21 (stereo not shown) [Example 129] |
| 0.0108 µM | 0.404 µM |  | COc1cccc2c1nc(N)n1nc([C@@H]3CCC[C@@H](c4cnn(C)c4)C3)nc21 [Example 136B, 7-methoxy-2-((1R,3R)-3-(1-methyl-1H-pyrazol-4-yl)cyclohexyl)-[1,2,4]triazolo[1,5-c]quinazolin-5-amine] |
| 0.005 µM | 3.01 µM |  | CCn1cc(N2C[C@H](c3nc4c5cccc(OC)c5nc(N)n4n3)CC[C@@H]2C)cn1 [Example 140D] |
| 0.0031 µM | 0.333 µM |  | COc1cccc2c1nc(N)n1nc([C@H]3CC[C@H](C)N(c4cnn(CC5(O)CCC5)c4)C3)nc21 [Example 144B] |
| 0.0002 µM | 0.0056 µM |  | COc1cccc2c1nc(N)n1nc([C@@H]3CC[C@H](C)N(c4cnn(C(C)C(C)(C)O)c4)C3)nc21 (stereo partly drawn) [Example 147D, 3-(4-((2S,5R)-5-(5-amino-7-methoxy-[1,2,4]triazolo[1,5-c]quinazolin-2-yl)-2-methylpiperidin-1-yl)-1H-pyrazol-1-yl)-2-methylbutan-2-ol] |
| 0.001 µM | 0.234 µM |  | COc1cccc2c1nc(N)n1nc([C@H]3C[C@@H](F)CN(c4cnn(C5CC5)c4)C3)nc21 [Example 148A] |
| 0.0278 µM |  | 36% inh. @ 10000 nM* | COc1cccc2c1nc(N)n1nc([C@@H]3C[C@@H](F)CN(c4cnn(C5CC5)c4)C3)nc21 [Example 148B] |
| 0.001 µM | 0.677 µM |  | CCn1cc(N2C[C@H](c3nc4c5cccc(OC)c5nc(N)n4n3)CC(F)(F)C2)cn1 [Example 153B] |
| 0.019 µM | 0.395 µM |  | CCn1cc(N2CC[C@@H](c3nc4c5cccc(OC)c5nc(N)n4n3)C2)cn1 [Example 160, (R)-2-(1-(1-ethyl-1H-pyrazol-4-yl)pyrrolidin-3-yl)-7-methoxy-[1,2,4]triazolo[1,5-c]quinazolin-5-amine] |
| 0.0132 µM | 0.231 µM |  | COc1cccc2c1nc(N)n1nc([C@@H]3CCN(c4cnn(C5CC5)c4)C3)nc21 [Example 161, (R)-2-(1-(1-cyclopropyl-1H-pyrazol-4-yl)pyrrolidin-3-yl)-7-methoxy-[1,2,4]triazolo[1,5-c]quinazolin-5-amine] |
| 0.014 µM | 0.0421 µM |  | COc1cccc2c1nc(N)n1nc([C@@H]3CCN(c4cnn(C(C)(C)C)c4)C3)nc21 [Example 163, (R)-2-(1-(1-(tert-butyl)-1H-pyrazol-4-yl)pyrrolidin-3-yl)-7-methoxy-[1,2,4]triazolo[1,5-c]quinazolin-5-amine] |
| 0.0089 µM | 0.0295 µM |  | COc1cccc2c1nc(N)n1nc([C@@H]3CCN(c4cnn(CC(F)(F)F)c4)C3)nc21 [Example 164, (R)-7-methoxy-2-(1-(1-(2,2,2-trifluoroethyl)-1H-pyrazol-4-yl)pyrrolidin-3-yl)-[1,2,4]triazolo[1,5-c]quinazolin-5-amine] |
| 0.0047 µM | 0.133 µM |  | COc1ccc2c(c1)nc(N)n1nc([C@@H]3CCCN(c4cnn(C)c4)C3)nc21 [Example 177, (R)-8-methoxy-2-(1-(1-methyl-1H-pyrazol-4-yl)piperidin-3-yl)-[1,2,4]triazolo[1,5-c]quinazolin-5-amine] |
| 0.004 µM | 0.141 µM |  | COc1ccc2c(c1)nc(N)n1nc([C@@H]3CCCN(c4cnn(C5CC5)c4)C3)nc21 [Example 184, (R)-2-(1-(1-cyclopropyl-1H-pyrazol-4-yl)piperidin-3-yl)-8-methoxy-[1,2,4]triazolo[1,5-c]quinazolin-5-amine] |
| 0.0004 µM | 0.0276 µM |  | COc1ccc2c(c1)nc(N)n1nc([C@@H]3CC[C@H](C)N(c4cn(CC(C)(C)O)nc4C)C3)nc21 [Example 213, 1-(4-((2S,5R)-5-(5-amino-8-methoxy-[1,2,4]triazolo[1,5-c]quinazolin-2-yl)-2-methylpiperidin-1-yl)-3-methyl-1H-pyrazol-1-yl)-2-methylpropan-2-ol] |
| 0.0002 µM | 0.0028 µM |  | COc1ccc2c(c1)nc(N)n1nc([C@@H]3CC[C@H](C)N(c4cnn(C(C)(C)CO)c4)C3)nc21 [Example 214, 2-(4-((2S,5R)-5-(5-amino-8-methoxy-[1,2,4]triazolo[1,5-c]quinazolin-2-yl)-2-methylpiperidin-1-yl)-1H-pyrazol-1-yl)-2-methylpropan-1-ol] |
| 0.0005 µM | 0.0063 µM |  | CC[C@@H]1CC[C@@H](c2nc3c4ccc(OC)cc4nc(N)n3n2)CN1c1cnn(C(C)(C)CO)c1 [Example 215B] |
| 0.0087 µM | 1.33 µM |  | CC[C@H]1CC[C@H](c2nc3c4ccc(OC)cc4nc(N)n3n2)CN1c1cnn(C(C)(C)CO)c1 [Example 215C] |
| 0.0207 µM | 0.721 µM |  | CC[C@H]1CC[C@@H](c2nc3c4ccc(OC)cc4nc(N)n3n2)CN1c1cnn(C(C)(C)CO)c1 [Example 215D] |
| 0.0339 µM | 0.651 µM |  | CC[C@@H]1CC[C@@H](c2nc3c4cccc(OC)c4nc(N)n3n2)CN1c1cnn(CC(C)(C)O)c1 [Example 216A, 1-(4-((2R,5R)-5-(5-amino-7-methoxy-[1,2,4]triazolo[1,5-c]quinazolin-2-yl)-2-ethylpiperidin-1-yl)-1H-pyrazol-1-yl)-2-methylpropan-2-ol] |
| 0.0004 µM | 0.0066 µM |  | CC[C@H]1CC[C@H](c2nc3c4cccc(OC)c4nc(N)n3n2)CN1c1cnn(CC(C)(C)O)c1 [Example 216B, 1-(4-((2S,5S)-5-(5-amino-7-methoxy-[1,2,4]triazolo[1,5-c]quinazolin-2-yl)-2-ethylpiperidin-1-yl)-1H-pyrazol-1-yl)-2-methylpropan-2-ol] |
